Laboratory results: patent US20010051631A1, “Tricyclic compounds, their production and use” (priority 1994, published 2001)
One block for each compound: values may come before it.

Assays:
[1] = system: spontaneously hypertensive rats (SHRs); assay: Antihypertensive action in spontaneously hypertensive rats (SHRs); assay type: in vivo, rat; conditions: SHR, oral
Protocol: Method: Male SHR at ages ranging from 20 to 24 weeks were anesthetized with pentobarbital.sodium (50 mg/kg, i.p.) and, from the femoral artery of each animal, a polyethylene tube was inserted. The polyethylene tube was connected to a pressure transducer and blood pressure after oral administration of drugs was recorded continuously under non-anesthesia. The animals, after the operation, were allowed to freely access to drinking water and eating, until administration of the drugs. The compounds were all orally administered as a suspension in gum arabic (2 ml/kg).

hamsters = assay: Cholesterol lowering effects in hamsters; assay type: in vivo, Syrian hamsters
Protocol: Method: Syrian hamsters of 10 weeks old were stabilized with common feed for two weeks. The animals were grouped based on the total cholesterol in blood. The vehicle (water) or drug was orally administered in a volume of 2 ml/kg for two weeks. During the period of the administration, blood was collected from retinal vessels with passage of time and the total cholesterol and triglyceride in blood were determined. On the other hand, blood was collected from abdominal aorta on the second week after the consecutive administration of the test compounds to determine the total cholesterol, triglyceride and HDL (high density lipid)-cholesterol in blood. Cholesterol C-test, triglyceride G-test and HDL-cholesterol E test (all manufactured by Wako Pure Chemical Industries, Ltd.) were used for the determination of these parameters, respectively.

Hs68 cells = assay: PDGF-induced proliferation in Hs68 cells (3H-thymidine uptake); assay type: cell-based, Human; conditions: Hs68, PDGF-BB 5 ng/ml, concentration 1 × 10^−6 M
Protocol: Method: Human skin fibroblasts (Hs68, Institute for Fermentation, Osaka) were seeded in 48-well plates precoated with collagen type I (Falcon) (25000 cells/well), and cultured for one day. Then, the cells were cultured in Dulbecco's modified Eagle's medium (high glucose) containing 0.1% bovine serum albumin for 48 hours. Fifteen (15) minutes after the addition of the drug, the cells were stimulated with 5 ng/ml of PDGF-BB (Becton Dickinson Labware) containing 3H-thymidine (final concentration 0.4 mCi/ml) (Amersham). After 24 hours, the reaction was stopped with 7.5% trichloroacetic acid at 4° C. and the plate was allowed to stand at 4° C. for 30 minutes. The cells were washed with Ca^2+- and Mg^2-free phosphate-buffered saline (PBS), after then 0.1% sodium dodecyl sulfate (SDS)/0.4N NaOH was added and the plate was allowed to stand at 37° C. for 1 hour to lyze the cells. The whole content of each well was taken in a vial and neutralized with 1N HCl, and then toluene scintillator (Wako Pure Chemical Ind.) was added to each vial. After stirring, the amount of ^3H-thymidine incorporated in the cells was determined with a liquid scintillation counter. The cellular uptake of ^3H-thymidine was used as an indicator of cell proliferation. The effect of the drug on the PDGF-BB (5 ng/ml) uptake of ^3H-thymidine was expressed as % inhibition.

PDGF-induced contraction = assay: Inhibitory effects on the contraction due to PDGF (isolated thoracic aorta strips); set-up: species or system stroke prone spontaneously hypertensive rats; conditions: 1.7 nM PDGF-AB, drug added 30 minutes before
Protocol: Method: The thoracic aorta of stroke prone spontaneously hypertensive rats at ages ranging from 16 to 36 weeks were isolated, and strip (2 mm in width, 2 cm in length) were prepared from the aorta. Each strip was mounted in 10 ml of an organ bath, which was loaded at 2 g and allowed to stabilized for 2 to 3 hours. As the nutrient, a Krebs-Henseleit solution, bubbled with a mixture gas (95% O2, 5% CO2), was used. At the time when the contraction response against 60 mM KCl becomes constant, each strip was applied by 1.7 nM of PDGF-AB (Cosmobio Inc.) for contraction. Observation was continued until the contraction become maximum and stable (30 to 40 minutes after application of PDGF-AB). Then, the strips were washed, and, in about one hour later (after the tone of the vaso-contraction was recovered to the original level), 10 μl of the drug (DMSO solution) was added. Thirty minutes after drug, 1.7 nM of PDGF-AB was added again and subjected to observation until the contraction became maximum. The PDGF-AB-induced contraction was isometrically recorded on a polygraph (Nihon Denki San-ei). From the contractile response of the strips to PDGF-AB in the absence or presence of drugs, % inhibition of each drug was calculated. IC50 value for the inhibitory effects was calculated in accordance with the Filler's theorem using the least squares method.

5/6 nephrectomized rats = assay: Antiproteinuric effect in 5/6 nephrectomized rats; assay type: in vivo, Sprague Dawley rats
Protocol: Method: Male Sprague Dawley rats of five-week old (Japan Clea) were anesthetized with pentobarbital.sodium (50 mg/kg, i.p.), and the right kidney was excised by dorsal incision, and its two-thirds were cut. Two weeks later, the whole of left kidney was removed. In the Sham group, only the second operation was performed. In two weeks after the second operation, urine was collected for 24 hours under drinking water ad libitum. Urinary albumin and total protein were quantitatively determined by the use of A/G B-test (Wako). On the following day of collecting urine, the blood pressure was measured by the tail cuff method. Test animals showing more proteinuria than that of Sham group were selected. Based on the amount of the proteinuria and the blood pressure level, the animals were grouped so that, the average and distribution of urinary protein and blood pressure same in each group. The drug was suspended in gumarabic/water or dissolved in water, and orally administered once a day for 6-8 weeks in a volume of 2 ml/kg. The administration was consecutively performed, and, at 2, 4, 6 and 8th weeks of treatment, urine was collected and blood pressure was measured. The vehicle group was orally administered with only water at a dose of 2 ml/kg.

[2] = 3 mg/kg oral once a day, 0 weeks
[3] = 3 mg/kg oral once a day, 2 weeks
[4] = 3 mg/kg oral once a day, 4 weeks
[5] = 3 mg/kg oral once a day, 6 weeks
[6] = 3 mg/kg oral once a day, 8 weeks
[7] = 10 mg/kg oral once a day, 0 weeks
[8] = 10 mg/kg oral once a day, 2 weeks
[9] = 10 mg/kg oral once a day, 4 weeks
[10] = 10 mg/kg oral once a day, 6 weeks
[11] = 10 mg/kg oral once a day, 8 weeks

Compound: 1,2-Dihydro-3-methyl-1-[3,3-dimethyl-5-(trifluoromethanesulfonamido)pentan-1-yl]-1,4,7b-triazacyclopent[cd]inden-2-one.hydrochloride [Example 40]
blood-pressure change ([1]; 30 mg/kg, after 7 hrs.): −20 [after 7 hrs.] mmHg

Compound: 1,2-Dihydro-3-methyl-1-[4-(methoxycarbonylamino)butan-1-yl]-1,4,7b-triazacyclopento[cd]inden-2-one.hydrochloride [Example 37]
blood-pressure change ([1]; 30 mg/kg, after 5 hrs.): −14 [after 5 hrs.] mmHg

Compound: 1,2-Dihydro-3-methyl-1-[4-[(2,2,2-trifluoro)ethanesulfonamido]butan-1-yl]-1,4,7b-triazacyclopent[cd]inden-2-one.hydrochloride [Example 38]
blood-pressure change ([1]; 30 mg/kg, after 4 hrs.): −19 [after 4 hrs.] mmHg

Compound: 1,2-Dihydro-3-methyl-1-[6-(trifluoromethanesulfon-amido)hexan-1-yl)-1,4,7b-triazacyclopent[cd]inden-2-one.hydrochloride [Example 28]
blood-pressure change ([1]; 30 mg/kg, after 3 hrs.): −13 [after 3 hrs.] mmHg
TC (total cholesterol in blood), % of Vehicle (hamsters; 30 mg/kg oral for two weeks): 65.1 % of Vehicle
TC-HDL ([total cholesterol value]-[HDL-cholesterol value]), % of Vehicle (hamsters; 30 mg/kg oral for two weeks): 61.6 % of Vehicle

Compound: O=C1c2cnc3cccc(n23)CN1CCC1CCN(S(=O)(=O)C(F)(F)F)CC1 [86 (ii), 4,5-dihydro-4-[2-(1-trifluoromethane-sulfonylpiperidin-4-yl)ethan-1-yl]-3H-1,4,8b-triazaace-naphthylen-3-one]
% Inhibition of cell proliferation (3H-thymidine uptake) (Hs68 cells): 96.6%

Compound: Cl.Cl.O=S(=O)(NCCCCN1Cc2cccc3ncc(n23)C1)C(F)(F)F [Example 1, 4,5-Dihydro-4-[4-(trifluoromethanesulfonamido)butan-1-yl]-3H-1,4,8b-triazaacenaphthylene.dihydrochloride]
blood-pressure change ([1]; 10 mg/kg, after 5 hrs.): −21 [after 5 hrs.] mmHg
IC50 (PDGF-induced contraction): 2.13 µM
Urinary albumin excretion (5/6 nephrectomized rats; [2]): 11.2 mg/day
Urinary protein excretion (5/6 nephrectomized rats; [2]): 114.5 mg/day
Urinary albumin excretion (5/6 nephrectomized rats; [3]): 16.9 mg/day
Urinary protein excretion (5/6 nephrectomized rats; [3]): 117.0 mg/day
Urinary albumin excretion (5/6 nephrectomized rats; [4]): 18.4 mg/day
Urinary protein excretion (5/6 nephrectomized rats; [4]): 98.2 mg/day
Urinary albumin excretion (5/6 nephrectomized rats; [5]): 13.0 mg/day
Urinary protein excretion (5/6 nephrectomized rats; [5]): 156.3 mg/day
Urinary albumin excretion (5/6 nephrectomized rats; [6]): 25.1 mg/day
Urinary protein excretion (5/6 nephrectomized rats; [6]): 102.8 mg/day
TC (total cholesterol in blood), % of Vehicle (hamsters; 30 mg/kg oral for two weeks): 64.1 % of Vehicle
TC-HDL ([total cholesterol value]-[HDL-cholesterol value]), % of Vehicle (hamsters; 30 mg/kg oral for two weeks): 68.9 % of Vehicle

IC50 (PDGF-induced contraction): 0.29 µM
Compound: Cc1nc2cccc3n2c1CN(CCCCNS(=O)(=O)C(F)(F)F)C3.Cl.Cl [Example 3, 4,5-Dihydro-2-methyl-4-[4-(trifluoromethanesulfonamido)butan-1-yl]-3H-1,4,8b-triazaacenaphthylene.dihydrochloride]
TC (total cholesterol in blood), % of Vehicle (hamsters; 10 mg/kg oral for two weeks): 82.2 % of Vehicle
TC-HDL ([total cholesterol value]-[HDL-cholesterol value]), % of Vehicle (hamsters; 10 mg/kg oral for two weeks): 79.0 % of Vehicle

Compound: Cl.O=C1c2cnc3cccc(n23)CN1CCCCNS(=O)(=O)C(F)(F)F [Example 6, 4,5-Dihydro-4-[4-(trifluoromethanesulfonamido)butan-1-yl]-3H-1,4,8b-triazaacenaphthylen-3-one.hydrochloride]
blood-pressure change ([1]; 10 mg/kg, after 4 hrs.): −19 [after 4 hrs.] mmHg
IC50 (PDGF-induced contraction): 1.27 µM
Urinary albumin excretion (5/6 nephrectomized rats; [7]): 6.8 mg/day
Urinary protein excretion (5/6 nephrectomized rats; [7]): 114.1 mg/day
Urinary albumin excretion (5/6 nephrectomized rats; [8]): 13.5 mg/day
Urinary protein excretion (5/6 nephrectomized rats; [8]): 103.0 mg/day
Urinary albumin excretion (5/6 nephrectomized rats; [9]): 17.2 mg/day
Urinary protein excretion (5/6 nephrectomized rats; [9]): 93.9 mg/day
Urinary albumin excretion (5/6 nephrectomized rats; [10]): 13.1 mg/day
Urinary protein excretion (5/6 nephrectomized rats; [10]): 167.2 mg/day
Urinary albumin excretion (5/6 nephrectomized rats; [11]): 24.8 mg/day
Urinary protein excretion (5/6 nephrectomized rats; [11]): 117.3 mg/day
TC (total cholesterol in blood), % of Vehicle (hamsters; 10 mg/kg oral for two weeks): 89.5 % of Vehicle
TC-HDL ([total cholesterol value]-[HDL-cholesterol value]), % of Vehicle (hamsters; 10 mg/kg oral for two weeks): 84.6 % of Vehicle

IC50 (PDGF-induced contraction): 0.31 µM
Compound: Cl.O=C1c2cnc3cccc(n23)CN1CCCCCNS(=O)(=O)C(F)(F)F [Example 8, 4,5-Dihydro-4-[5-(trifluoromethanesulfonamido)pentan-1-yl]-3H-1,4,8b-triazaacenaphthylen-3-one.hydrochloride]
TC (total cholesterol in blood), % of Vehicle (hamsters; 10 mg/kg oral for two weeks): 81.5 % of Vehicle
TC-HDL ([total cholesterol value]-[HDL-cholesterol value]), % of Vehicle (hamsters; 10 mg/kg oral for two weeks): 77.1 % of Vehicle

Compound: Cl.O=c1c2cccc3ncc(c(=O)n1CCCCNS(=O)(=O)C(F)(F)F)n32 [Example 11, 4,5-Dihydro-4-[4-(trifluoromethanesulfonamido)butan-1-yl]-3H-1,4,8b-triazaacenaphthylene-3,5-dione.hydrochloride]
blood-pressure change ([1]; 30 mg/kg, after 7 hrs.): −31 [after 7 hrs.] mmHg
Urinary albumin excretion (5/6 nephrectomized rats; [7]): 10.2 mg/day
Urinary protein excretion (5/6 nephrectomized rats; [7]): 115.1 mg/day
Urinary albumin excretion (5/6 nephrectomized rats; [8]): 19.8 mg/day
Urinary protein excretion (5/6 nephrectomized rats; [8]): 69.1 mg/day
Urinary albumin excretion (5/6 nephrectomized rats; [9]): 30.3 mg/day
Urinary protein excretion (5/6 nephrectomized rats; [9]): 62.5 mg/day
Urinary albumin excretion (5/6 nephrectomized rats; [10]): 26.0 mg/day
Urinary protein excretion (5/6 nephrectomized rats; [10]): 170.3 mg/day
Urinary albumin excretion (5/6 nephrectomized rats; [11]): 38.3 mg/day
Urinary protein excretion (5/6 nephrectomized rats; [11]): 125.4 mg/day

Compound: CC(C)(C)OC(=O)NCCCCn1c(=O)c2cccc3ncc(c1=O)n32 [Example 17, 4,5-Dihydro-4-[4-(tert-butoxycarbonylamino)butan-1-yl]-3H-1,4,8b-triazaacenaphthylene-3,5-dione]
melting point: 118 to 119 °C

IC50 (PDGF-induced contraction): 0.37 µM
Compound: Cc1ncc2ccc3n(CCCCCNS(=O)(=O)C(F)(F)F)c(=O)c1n23.Cl [Example 26]
blood-pressure change ([1]; 10 mg/kg, after 7 hrs.): −22 [after 7 hrs.] mmHg
TC (total cholesterol in blood), % of Vehicle (hamsters; 30 mg/kg oral for two weeks): 74.5 % of Vehicle
TC-HDL ([total cholesterol value]-[HDL-cholesterol value]), % of Vehicle (hamsters; 30 mg/kg oral for two weeks): 72.1 % of Vehicle

Compound: Cc1ncc2ccc3n(CCCCCNS(=O)(=O)CC(F)(F)F)c(=O)c1n23.Cl [Example 27, 1,2-Dihydro-3-methyl-1-[5-[(2,2,2-trifluoro)-ethanesulfonamido]pentan-1-yl]-1,4,7b-triazacyclopent[cd]inden-2-one.hydrochloride]
blood-pressure change ([1]; 30 mg/kg, after 7 hrs.): −17 [after 7 hrs.] mmHg

Compound: CCS(=O)(=O)NCCCCn1c(=O)c2c(C)ncc3ccc1n32.Cl [Example 35, 1,2-Dihydro-3-methyl-1-[4-(ethanesulfonamido)butan-1-yl]-1,4,7b-triazacyclopent[cd]inden-2-one.hydrochloride]
blood-pressure change ([1]; 30 mg/kg, after 2 hrs.): −14 [after 2 hrs.] mmHg
